Non-standard residues stand in square brackets, D forms with d. Residues, ends and D or L forms follow the SMILES beside them. Phe(ol) = N[C@H](CO)Cc1ccccc1; Aib = CC(C)(N)C(=O)O
Legend:
[1] = system: nAChR (nicotinic acetylcholine receptor); assay: Voltage-clamp current recording of nAChR fused into a membrane on a Si/SiO2 carrier chip; assay type: biochemical; conditions: carbamylcholine 20 μM final concentration
Experimental: In these experiments, a membrane is formed as above. Next, nAChR is introduced into the membrane via Ca^2+-mediated fusion. Specifically, nAChR is purified from an appropriate source, and then reconstituted into small unilamellar vesicles.^xviii Next, these vesicles are added to the measurement compartment, and then fused to the membrane by increasing the Ca^2+ concentration of the sample chamber to greater than about 1 mM. In given cases, the fusion is supported by the subsequent temporary setup of an osmotic gradient.^xix Finally, a potential is applied, and a plot of current versus time is generated. In the absence of agonists, typical receptor opening events are observed (FIG. 15A), whereas, in the presence of agonists, such as carbamylcholine (20 μM final concentration), such receptor opening events are substantially extinguished within a short time (t<100 seconds) (FIG. 15B).

[2] = Voltage-clamp current recording of alamethicin pores in a vesicle-derived membrane over a chip aperture; assay type: biochemical; conditions: alamethicin 0.1 μg/mL final concentration in measurement compartment, 85 mM KCl
Experimental: In these experiments, a membrane is formed over an aperture in 85 mM KCl. Next, alamethicin is added to the measurement compartment, to a final concentration of 0.1 μg/mL.^xvii Finally, a potential is applied, and a plot of current versus time is generated.

SMILES	receptor openings after addition of the agonist (desensitization) ([1]; 150 seconds after addition, 400 mM KCl, positive potentials)	time within which receptor opening events are substantially extinguished in the presence of agonist [1] [s]	conductivities of the alamethicin pores [2] [pS]
C[N+](C)(C)CCOC(N)=O.[Cl-] [carbamylcholine]	no receptor openings are observed	< 100	–
CC(=O)NC(C)(C)C(=O)N1CCC[C@H]1C(=O)NC(C)(C)C(=O)N[C@@H](C)C(=O)NC(C)(C)C(=O)N[C@@H](C)C(=O)N[C@@H](CCC(N)=O)C(=O)NC(C)(C)C(=O)N[C@H](C(=O)NC(C)(C)C(=O)NCC(=O)N[C@@H](CC(C)C)C(=O)NC(C)(C)C(=O)N1CCC[C@H]1C(=O)N[C@H](C(=O)NC(C)(C)C(=O)NC(C)(C)C(=O)N[C@@H](CCC(=O)O)C(=O)N[C@@H](CCC(N)=O)C(=O)N[C@H](CO)Cc1ccccc1)C(C)C)C(C)C [alamethicin] (Ac-[Aib]P[Aib]A[Aib]AQ[Aib]V[Aib]GL[Aib]PV[Aib][Aib]EQ[Phe(ol)])	–	–	600

From patent US7387715B2, “Sample positioning and analysis system” (priority 1997, dated 2008)
